Experimental data from patent publication US20250002448A1, “ALLOSTERIC MODULATORS OF NICOTINIC ACETYLCHOLINE RECEPTORS” (MERCK SHARP & DOHME LLC, priority 2021, published 2025).
Where two headings read alike, the source gives them in different places.

Biological target: T1, human a7 nAChR (Homo sapiens, UniProt P36544)
T1 construct: catalogue number not given
Assay: automated patch-clamp electrophysiology functional assay (Assay A), IonFlux HT
Type: cell-based
Details: HEK cell line stably expressing human RIC-3 and human a7, whole-cell population patch, 40 μM acetylcholine
Method: The a7 nAChR positive allosteric modulator (PAM) activity of the present compounds may be tested using assays known in the art. The a7 nAChR PAMs described herein have activities in an automated patch-clamp electrophysiology functional assay as described in the examples. The assay was performed using the lonFlux HT in a whole-cell, population patch configuration. See Golden et al. Assay Drug Dev. Technol. (2011) 9:608-619. The compounds were assessed for their ability to modulate the function of the human a7 nAChR stably expressed in a HEK cell line both in the presence, and in the absence of the natural a7 agonist acetylcholine. By performing a series of such measurements at different concentrations, the effective concentration of the a7 nAChR PAMs (EC50) was determined. See Spencer et al. Assay Drug Dev. Technol. (2012) 10:313-324.
Direct activation of a7 (agonism), and potentiation of acetylcholine-evoked a7 currents was determined as follows:
Automated patch-clamp electrophysiology was performed using the IonFlux HT (Fluxion Biosciences Inc., San Francisco, CA) in the whole-cell, population patch configuration. Test compounds were assessed for their ability to modulate the function of the a7 nicotinic acetylcholine receptor both in the presence, and in the absence of the natural a7 agonist acetylcholine. A HEK cell line stably expressing both human RIC-3 and human a7 (PrecisION hnAChR a7/RIC-3. Eurofins Pharma, St. Charles, MO) was cultured in 175 cm^2 triple-layer tissue culture flasks to no more than 90% confluency in DMEM/F-12 growth media supplemented with 10% heat-inactivated fetal bovine serum, 1% non-essential amino acids. 0.625 μg/mL Puromycin, and 400 μg/mL Geneticin. Immediately prior to assay, cells were detached by first aspirating growth media, rinsing with Dulbecco's phosphate buffered saline, and then adding 10 mL of Accutase (Innovative Cell Technologies, San Diego, CA) to the flask and then incubating at 37° C. for 5 minutes. Detached cells were then recovered by the addition of 40 mL of CHO-serum-free media supplemented with 25 mM HEPES, and rocked gently in a 50 ml conical tube for 20 minutes prior to patch-clamp assay. After recovery, cells were pelleted by centrifugation at 1.000 RPM for 1 minute in a compact bench top centrifuge: recovery media was aspirated and cells were resuspended in external recording solution (150 mM NaCl, 5 mM KCl, 2 mM CaCl2), 1 mM MgCl2, 10 mM HEPES, 12 mM dextrose) to a density of 5.0×10^6 cells/mL. The cell suspension was added to the cell inlet wells on an IonFlux HT population patch plate which had previously been rinsed and primed with deionized H2O. Test compounds were serially diluted in DMSO and then resuspended to the final test concentration in external recording solution, with, or without 40 μM acetylcholine added to the external recording solution: test compounds were then transferred to the IonFlux HT population patch plate. Internal recording solution (110 mM TrisPO4, 28 mM TrisBase, 0.1 mM CaCl2), 2 mM MgCl2, 11 mM EGTA, 4 mM MgATP) was added to the internal recording solution inlet wells on the IonFlux HT patch plate previously loaded with cells and test compounds, and the plate loaded into the lonFlux HT instrument. A protocol was executed on the IonFlux HT to trap the cells, break into the cells, and establish the whole-cell recording configuration: cells were voltage-clamped at a holding potential of −60 mV for the duration of the experiment, all experiments were conducted at room temperature, and the IonFlux HT injection pressure was 8 psi for solution applications. Upon establishing the whole-cell configuration, external recording solution was perfused into the recording chambers for 120 seconds and then 40 μM acetylcholine was applied for 1 second and immediately washed off with external recording solution for 60 seconds. […]

T1 sequence (P36544 23-502): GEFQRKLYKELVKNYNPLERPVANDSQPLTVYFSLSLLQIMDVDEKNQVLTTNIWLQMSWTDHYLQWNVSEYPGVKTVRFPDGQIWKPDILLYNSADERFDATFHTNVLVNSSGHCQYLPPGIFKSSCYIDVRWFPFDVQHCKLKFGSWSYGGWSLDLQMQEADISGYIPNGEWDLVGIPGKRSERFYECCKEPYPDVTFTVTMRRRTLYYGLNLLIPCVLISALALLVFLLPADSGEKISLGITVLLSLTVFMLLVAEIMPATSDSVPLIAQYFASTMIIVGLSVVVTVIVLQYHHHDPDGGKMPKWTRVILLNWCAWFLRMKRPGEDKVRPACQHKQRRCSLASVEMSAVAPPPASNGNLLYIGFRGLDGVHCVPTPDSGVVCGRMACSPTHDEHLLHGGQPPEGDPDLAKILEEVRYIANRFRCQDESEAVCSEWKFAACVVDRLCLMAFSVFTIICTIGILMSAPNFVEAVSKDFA

Row | SMILES | EC50 (read-out: a7 nAChR EC50) [nM] | EC50 (read-out: α7 nAChR Potency) [nM]
1 | O=C(N[C@@H](CO)C1CCCCC1)C1CC12COc1ccc(F)cc12 (stereo in doubt) [Example A15, cis-N-[ (1R)-1-Cyclohexyl-2-hydroxyethyl]-5-fluoro-2H-spiro[1-benzofuran-3,1′-cyclopropane]-2′-carboxamide] | 770 | 500 to 5000
2 | O=C(N[C@@H](CO)C1CCCCC1)C1CC12COc1ccccc12 (some centres unmarked) [Example A8] | 630 | 500 to 5000
3 | O=C(NC1(c2ccc(F)cc2)COC1)C1CC12COc1ccccc12 (centres unmarked) [Example A9, N-[3-(4-Fluorophenyl)oxetan-3-yl]-2H-spiro[1-benzofuran-3,1′-cyclopropane]-2′-carboxamide] | 1100 | 500 to 5000
4 | O=C(NC1(c2ccc(F)cc2)COC1)C1CC12CCc1ccc(F)cc12 (centres unmarked) [Example A6] |  | 500 to 5000
5 | O=C(N[C@@H](C(F)F)C1CCCCC1)C1CC12COc1ccc(F)cc12 (stereo in doubt) [Example A14, cis-N-[(1R)-1-Cyclohexyl-2,2-difluoroethyl]-5-fluoro-2H-spiro[1-benzofuran-3,1′-cyclopropane]-2′-carboxamide] |  | 500 to 5000
6 | COc1ccc(C2(NC(=O)[C@@H]3C[C@]34COc3ccc(F)cc34)CC2)cn1 (relative stereo) [Example A16, cis-5-Fluoro-N-[1-(6-methoxypyridin-3-yl)cyclopropyl]-2H-spiro[1-benzofuran-3,1′-cyclopropane]-2′-carboxamide] |  | 500 to 5000
7 | CCOc1ccc(C(CO)NC(=O)C2CC23COc2ccc(F)cc23)cn1 [Example A11, cis-N-[ (1R)-1-(6-Ethoxypyridin-3-yl)-2-hydroxyethyl]-5-fluoro-2H-spiro[1-benzofuran-3,1′-cyclopropane]-2′-carboxamide] | 5800 | 5000 to 50000
8 | O=C(N[C@@H](C(F)F)C1CCCCC1)C1CC12CCc1ccc(F)cc12 (stereo partly drawn) [Example A7, N-[(1R)-1-Cyclohexyl-2,2-difluoroethyl]-6′-fluoro-2′, 3′-dihydrospiro[cyclopropane-1,1′-indene]-2-carboxamide] |  | 500 to 5000
9 | CCOc1ccc([C@H](COC)NC(=O)C2CC23CCc2ccccc23)cc1 (mixture of isomers) [Example 1, N-[(1R)-1-(4-Ethoxyphenyl)-2-Methoxy-Ethyl[-2′,3′-Dihydrospiro]Cyclopropane-1,1′-Indene]-2-Carboxamide, Mixture a] | 4500 | 500 to 5000
10 | O=C(N[C@@H](CO)C1CCCCC1)C1CC12CCc1ccc(F)cc12 (stereo partly drawn) [Example A4, N-[(1R)-1-Cyclohexyl-2-hydroxyethyl]-6′-fluoro-2′, 3′-dihydrospiro[cyclopropane-1,1′-indene]-2-carboxamide] | 1200 | 500 to 5000
11 | COc1cc(C2(NC(=O)C3CC34COc3ccc(F)cc34)CC2)ccn1 (stereo not drawn) [Example A17, cis-S-Fluoro-N-[1-(2-methoxypyridin-4-vl)cyclopropyl]-2H-spiro[1-benzofuran-3,1′-cyclopropane]-2′-carboxamide] | 2300 | 500 to 5000
12 | CCOc1ccc([C@H](COC)NC(=O)C2CC23CCCc2ccccc23)cc1 (single isomer, unassigned) [Example B1] | 740 | 500 to 5000
13 | CCOc1ccc([C@H](COC)NC(=O)C2CC23CCc2ccc(F)cc23)cc1 (single isomer, unassigned) [Example A3] | 700 | 500 to 5000
14 | CCOc1ccc([C@H](COC)NC(=O)C2CC23COc2ccc(F)cc23)cc1 (single isomer, unassigned; diastereomer d) [Example 5] | 480 | 100 to 500
15 | CCOc1ccc([C@H](COC)NC(=O)[C@@H]2C[C@]23CCc2ccccc23)cc1 [Example 3, (1R,2R)-N-[ (1R)-1-(4-Ethoxyphenyl)-2-Methoxy-Ethyl]-2′,3′-Dihydrospiro[Cyclopropane-1,1′-Indene]-2-Carboxamide] | 690 | 500 to 5000
16 | CCOc1ccc([C@H](CF)NC(=O)C2CC23COc2ccc(F)cc23)cn1 (stereo in doubt) [Example A13, cis-N-[(1R)-1-(6-Ethoxypyridin-3-yl)-2-fluoroethyl]-5-fluoro-2H-spiro[1-benzofuran-3,1′-cyclopropane]-2′-carboxamide] | 790 | 500 to 5000
17 | CCOc1ccc([C@H](COC)NC(=O)C2CC23COc2ccc(F)cc23)cc1 (stereo in doubt) [Example A10, cis-N-[(1R)-1-(4-Ethoxyphenyl)-2-methoxyethyl]-5-fluoro-2H-spiro[I-benzofuran-3,1′-cyclopropane]-2′-carboxamide] |  | 500 to 5000
18 | O=C(NC1(c2ccc(F)cc2)COC1)C1CC12CCc1ccccc12 (racemic) [Example A1, N-[3-(4-Fluorophenyl)oxetan-3-yl]-2′, 3′-dihydrospiro[cyclopropane-1,1′-indene]-2-carboxamide] | 3200 | 500 to 5000
19 | CCOc1ccc([C@H](COC)NC(=O)C2CC23CCc2ccccc23)cc1 (mixture of isomers) [Example 2, N-[(1R)-1-(4-Ethoxyphenyl)-2-Methoxy-Ethyl]-2′,3′-Dihydrospiro[Cyclopropane-1,1′-Indene]-2-Carboxamide, Mixture B] | 420 | 100 to 500
20 | CCOc1ccc([C@H](COC)NC(=O)C2CC23CCc2ccc(F)cc23)cc1 (single isomer, unassigned) [Example A2] | 1600 | 500 to 5000
21 | CCOc1ccc([C@H](COC)NC(=O)C2CC23CCc2cc(F)ccc23)cc1 (single isomer, unassigned; diastereomer b) [Example 4] | 590 | 500 to 5000
22 | CCOc1ccc([C@@H](NC(=O)C2CC23COc2ccc(F)cc23)C(F)F)cn1 (stereo in doubt) [Example A12, cis-N-[(1R)-1-(6-Ethoxypyridin-3-yl)-2,2-difluoroethyl]-5-fluoro-2H-spiro[1-benzofuran-3,1′-cyclopropane]-2′-carboxamide] | 3000 | 500 to 5000
23 | CCOc1ccc([C@H](CO)NC(=O)C2CC23CCc2ccc(F)cc23)cn1 (stereo partly drawn) [Example A5, N-[(1R)-1-(6-Ethoxypyridin-3-yl)-2-hydroxyethyl]-6′-fluoro-2′, 3′-dihydrospiro[cyclopropane-1,1′-indene]-2-carboxamide] | 1400 | 500 to 5000
